Earlier results in patent US10441534B2, “Method for treating gynecological diseases” (PregLem SA, priority 2012, dated 2019).

Experiments:
uterine fibroids = conditions: three months treatment period
[1] = once daily UPA 5 mg tablets, plasma

Structure (SMILES): CC(=O)O[C@]1(C(C)=O)CC[C@H]2[C@@H]3CCC4=CC(=O)CCC4=C3[C@@H](c3ccc(N(C)C)cc3)C[C@@]21C [ulipristal acetate, 17α-acetoxy-11β-(4-(N,N-dimethylamino)-phenyl)-19-norpregna-4,9-diene-3,20-dione]
- efficacy in patient with uterine fibroids (uterine fibroids): efficient on the control of bleeding, reduction of fibroids volume and improvement of the patient quality of life
- UPA Cmax [1]: about 25 ng/mL
- UPA steady state concentrations [1]: about 3 ng/mL
